Laboratory results reported in ChEMBL document CHEMBL1926647, “Discovery of 4-aminomethylphenylacetic acids as γ-secretase modulators via a scaffold design approach” (Bioorg Med Chem Lett, 2011).
pEC50, pIC50: −log10 of the molar value. One block for each compound: values may come before it. The source made the active and inactive calls. No cut-off for these calls is given here.

Legend:
[1] = Modulation of gamma-secretase expressed in CHO cells co-expressing APP V717F mutant assessed as reduction in amyloid beta42 production after 17 hrs by ELISA; type: cell-based
Homo sapiens = species: Homo sapiens; experiment: Liver blood flow in human; type: ADME, organism-based
[2] = molecular target: Voltage-gated inwardly rectifying potassium channel KCNH2 (Homo sapiens, UniProt Q12809); experiment: Inhibition of human ERG at 10 uM
Voltage-gated inwardly rectifying potassium channel KCNH2, sequence (Q12809 whole entry): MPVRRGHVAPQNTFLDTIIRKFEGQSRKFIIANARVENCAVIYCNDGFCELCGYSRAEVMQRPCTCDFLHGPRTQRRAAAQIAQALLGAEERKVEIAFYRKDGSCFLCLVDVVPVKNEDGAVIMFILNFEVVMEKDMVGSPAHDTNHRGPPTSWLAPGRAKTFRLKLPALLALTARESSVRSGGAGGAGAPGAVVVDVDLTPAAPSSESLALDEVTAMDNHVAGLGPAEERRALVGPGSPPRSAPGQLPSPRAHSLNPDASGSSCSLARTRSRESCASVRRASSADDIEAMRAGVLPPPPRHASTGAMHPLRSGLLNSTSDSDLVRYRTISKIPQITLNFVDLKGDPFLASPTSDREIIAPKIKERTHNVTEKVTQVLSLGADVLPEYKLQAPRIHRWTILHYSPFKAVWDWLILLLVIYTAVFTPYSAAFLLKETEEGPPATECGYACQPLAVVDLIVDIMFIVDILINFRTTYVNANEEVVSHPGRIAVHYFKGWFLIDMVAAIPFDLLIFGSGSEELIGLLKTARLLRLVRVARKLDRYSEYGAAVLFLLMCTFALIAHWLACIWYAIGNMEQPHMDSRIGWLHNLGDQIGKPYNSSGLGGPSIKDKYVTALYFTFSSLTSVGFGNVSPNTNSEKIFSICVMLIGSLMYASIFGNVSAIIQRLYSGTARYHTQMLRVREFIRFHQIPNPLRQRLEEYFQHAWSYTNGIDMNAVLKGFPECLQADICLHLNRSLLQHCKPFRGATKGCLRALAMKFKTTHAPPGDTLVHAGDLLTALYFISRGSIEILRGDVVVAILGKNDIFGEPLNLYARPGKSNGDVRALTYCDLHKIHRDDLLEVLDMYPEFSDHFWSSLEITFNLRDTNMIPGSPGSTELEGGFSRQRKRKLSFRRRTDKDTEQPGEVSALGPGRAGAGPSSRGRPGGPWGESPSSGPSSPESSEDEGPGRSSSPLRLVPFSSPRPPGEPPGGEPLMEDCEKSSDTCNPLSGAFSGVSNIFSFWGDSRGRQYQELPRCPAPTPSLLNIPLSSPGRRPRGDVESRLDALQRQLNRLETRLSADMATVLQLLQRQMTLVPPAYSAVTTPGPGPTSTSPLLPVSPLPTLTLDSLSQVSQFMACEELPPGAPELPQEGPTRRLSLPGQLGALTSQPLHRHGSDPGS

[3] = Drug uptake in wild type CF1 mouse brain at 30 mg/kg, po after 4 hrs; type: ADME, organism-based; set-up: dose 30 mg/kg, route oral; details: read-out: Drug uptake
[4] = Cmax in dog at 0.5 mg/kg; type: ADME, organism-based, Canis lupus familiaris; set-up: dose 0.5 mg/kg; details: in vivo
Rattus norvegicus [5] = species: Rattus norvegicus; experiment: Liver blood flow in rat; type: ADME, organism-based
Mus musculus [6] = experiment: Inhibition of gamma-secretase-mediated cleavage of APP in wild type CF1 mouse brain assessed as inhibition of amyloid beta42 production at 12.5 mg/kg, po after 4 hrs by ELISA; type: functional; details: Mus musculus, CF1, Brain, po, 4 h
Cytochrome P450 1A2 = molecular target: T1, Cytochrome P450 1A2 (Homo sapiens, UniProt P05177); experiment: Inhibition of human CYP1A2; type: ADME
T1 sequence (P05177 whole entry): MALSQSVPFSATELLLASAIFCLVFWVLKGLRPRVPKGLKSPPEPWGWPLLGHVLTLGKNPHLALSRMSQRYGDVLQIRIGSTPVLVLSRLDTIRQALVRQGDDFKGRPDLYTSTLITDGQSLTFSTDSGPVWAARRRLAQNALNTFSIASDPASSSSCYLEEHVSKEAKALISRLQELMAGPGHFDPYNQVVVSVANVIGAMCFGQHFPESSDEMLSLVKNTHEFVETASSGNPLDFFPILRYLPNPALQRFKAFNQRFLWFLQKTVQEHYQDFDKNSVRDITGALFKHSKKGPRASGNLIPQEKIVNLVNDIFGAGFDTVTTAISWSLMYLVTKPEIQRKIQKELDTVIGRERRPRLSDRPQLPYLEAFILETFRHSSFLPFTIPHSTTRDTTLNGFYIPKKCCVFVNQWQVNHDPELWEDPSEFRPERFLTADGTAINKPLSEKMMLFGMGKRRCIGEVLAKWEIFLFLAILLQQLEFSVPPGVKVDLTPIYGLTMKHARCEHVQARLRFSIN

[7] = Drug uptake in wild type CF1 mouse brain at 12.5 mg/kg, po after 4 hrs; type: ADME, organism-based; set-up: dose 12.5 mg/kg, route oral; details: read-out: Drug uptake
Rattus norvegicus [8] = experiment: Dose normalised AUC in F344 rat at 2 mg/kg; type: ADME, organism-based; set-up: dose 2 mg/kg; details: in vivo
Canis familiaris = experiment: Dose normalised AUC in dog at 0.5 mg/kg; type: ADME, organism-based, Canis lupus familiaris; set-up: dose 0.5 mg/kg; details: in vivo
[9] = Half life in dog at 0.5 mg/kg; type: ADME, organism-based, Canis lupus familiaris; set-up: dose 0.5 mg/kg; details: in vivo
[10] = Clearance in dog at 0.5 mg/kg; type: ADME, organism-based, Canis lupus familiaris; set-up: dose 0.5 mg/kg; details: in vivo
Caco-2 = experiment: Ratio of permeability from basolateral to apical side to apical to basolateral side in human Caco2 cells; type: ADME, cell-based
[11] = Ratio of drug level in brain to plasma in wild type CF1 mouse at 30 mg/kg, po after 4 hrs; type: ADME, organism-based; set-up: dose 30 mg/kg, route oral; details: read-out: BPR
Cytochrome P450 2C9 = Cytochrome P450 2C9 (Homo sapiens, UniProt P11712); experiment: Inhibition of human CYP2C9; type: ADME
Cytochrome P450 2C9, sequence (P11712 whole entry): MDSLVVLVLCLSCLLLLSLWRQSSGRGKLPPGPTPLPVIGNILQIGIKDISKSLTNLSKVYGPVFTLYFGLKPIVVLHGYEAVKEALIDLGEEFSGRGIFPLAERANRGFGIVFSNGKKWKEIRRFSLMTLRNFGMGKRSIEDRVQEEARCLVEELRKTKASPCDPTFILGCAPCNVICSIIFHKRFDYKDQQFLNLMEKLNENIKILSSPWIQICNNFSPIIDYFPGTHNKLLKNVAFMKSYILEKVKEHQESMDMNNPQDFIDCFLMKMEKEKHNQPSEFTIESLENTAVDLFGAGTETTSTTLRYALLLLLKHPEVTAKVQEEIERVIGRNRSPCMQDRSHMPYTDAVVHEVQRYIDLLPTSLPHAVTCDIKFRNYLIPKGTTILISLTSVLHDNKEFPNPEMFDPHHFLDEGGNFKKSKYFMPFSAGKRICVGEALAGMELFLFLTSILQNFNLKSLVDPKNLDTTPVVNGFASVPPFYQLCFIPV

Cytochrome P450 2D6 = Cytochrome P450 2D6 (Homo sapiens, UniProt P10635); experiment: Inhibition of human CYP2D6; type: ADME
Cytochrome P450 2D6, sequence (P10635 whole entry): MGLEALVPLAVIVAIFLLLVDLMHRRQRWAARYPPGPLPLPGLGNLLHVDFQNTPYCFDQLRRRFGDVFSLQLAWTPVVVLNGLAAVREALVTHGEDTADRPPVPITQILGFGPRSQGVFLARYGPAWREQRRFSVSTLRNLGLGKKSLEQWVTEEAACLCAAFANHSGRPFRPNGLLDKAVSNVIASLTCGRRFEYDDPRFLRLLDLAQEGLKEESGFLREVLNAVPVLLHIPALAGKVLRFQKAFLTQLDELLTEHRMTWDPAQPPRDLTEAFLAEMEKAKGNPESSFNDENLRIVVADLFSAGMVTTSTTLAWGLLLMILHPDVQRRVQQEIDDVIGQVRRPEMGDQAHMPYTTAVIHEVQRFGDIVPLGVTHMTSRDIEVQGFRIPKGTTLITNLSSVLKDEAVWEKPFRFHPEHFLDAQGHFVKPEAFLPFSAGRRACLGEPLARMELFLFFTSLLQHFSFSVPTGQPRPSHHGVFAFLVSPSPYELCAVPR

[12] = Drug uptake in wild type CF1 mouse plasma at 30 mg/kg, po after 4 hrs; type: ADME, organism-based; set-up: dose 30 mg/kg, route oral
Cytochrome P450 2C19 = Cytochrome P450 2C19 (Homo sapiens, UniProt P33261); experiment: Inhibition of human CYP2C19; type: ADME
Cytochrome P450 2C19, sequence (P33261 whole entry): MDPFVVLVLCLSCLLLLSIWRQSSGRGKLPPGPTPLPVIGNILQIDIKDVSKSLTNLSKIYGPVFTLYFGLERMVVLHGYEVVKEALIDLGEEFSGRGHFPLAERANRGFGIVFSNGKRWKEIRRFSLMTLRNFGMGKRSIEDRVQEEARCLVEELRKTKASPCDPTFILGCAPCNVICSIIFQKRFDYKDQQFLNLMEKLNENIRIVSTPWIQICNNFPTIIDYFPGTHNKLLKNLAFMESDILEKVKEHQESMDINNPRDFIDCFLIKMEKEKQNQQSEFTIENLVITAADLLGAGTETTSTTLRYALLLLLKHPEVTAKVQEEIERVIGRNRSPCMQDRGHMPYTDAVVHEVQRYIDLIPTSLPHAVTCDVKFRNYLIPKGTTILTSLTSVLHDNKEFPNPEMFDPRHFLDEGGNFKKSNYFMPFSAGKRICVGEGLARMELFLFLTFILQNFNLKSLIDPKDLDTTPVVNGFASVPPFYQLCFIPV

[13] = Half life in F344 rat at 2 mg/kg; type: ADME, organism-based; set-up: dose 2 mg/kg; details: in vivo
[14] = Apparent permeability from apical to basolateral side in human Caco2 cells; type: ADME, cell-based; details: caco-2
[15] = Clearance in F344 rat at 2 mg/kg; type: ADME, organism-based; set-up: dose 2 mg/kg; details: in vivo
Cytochrome P450 3A4 = Cytochrome P450 3A4 (Homo sapiens, UniProt P08684); experiment: Inhibition of human CYP3A4; type: ADME
Cytochrome P450 3A4, sequence (P08684 whole entry): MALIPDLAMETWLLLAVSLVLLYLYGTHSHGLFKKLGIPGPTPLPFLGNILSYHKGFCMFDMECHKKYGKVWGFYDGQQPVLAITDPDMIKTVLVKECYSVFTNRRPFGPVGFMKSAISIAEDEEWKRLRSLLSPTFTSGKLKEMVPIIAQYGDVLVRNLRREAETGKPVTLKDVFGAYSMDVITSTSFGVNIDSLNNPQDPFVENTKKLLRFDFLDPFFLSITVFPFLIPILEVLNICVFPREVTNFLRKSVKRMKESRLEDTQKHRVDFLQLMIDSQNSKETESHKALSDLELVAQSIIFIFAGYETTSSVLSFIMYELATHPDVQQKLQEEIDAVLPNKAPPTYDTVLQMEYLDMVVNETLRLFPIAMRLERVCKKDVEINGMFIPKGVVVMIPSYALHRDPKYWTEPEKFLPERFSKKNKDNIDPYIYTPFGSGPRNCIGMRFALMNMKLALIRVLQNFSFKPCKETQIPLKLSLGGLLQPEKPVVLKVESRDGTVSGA

Mus musculus [16] = experiment: Inhibition of gamma-secretase-mediated cleavage of APP in wild type CF1 mouse brain assessed as inhibition of amyloid beta42 production at 30 mg/kg, po after 4 hrs by ELISA; type: functional; details: for inhibition (INH): 30 mg/kg; for inhibition in vivo at 30 mg/kg: Mus musculus, CF1, Brain, po, 4 h
[17] = Modulation of gamma-secretase-mediated cleavage of APP assessed as reduction in amyloid beta42 production
[18] = Modulation of gamma-secretase expressed in CHO cells co-expressing polyhistidine-tagged APP695NL I-his with FAD-linked Swedish and London mutation assessed as reduction in amyloid beta42 production after 2 hrs by ELISA; type: cell-based
[19] = Drug uptake in wild type CF1 mouse brain at 50 mg/kg, po after 4 hrs; type: ADME, organism-based; set-up: dose 50 mg/kg, route oral; details: read-out: Drug uptake
Mus musculus [20] = experiment: Inhibition of gamma-secretase-mediated cleavage of APP in wild type CF1 mouse brain assessed as inhibition of amyloid beta42 production at 50 mg/kg, po after 4 hrs by ELISA; type: functional

SMILES: CC(C)CCN(Cc1ccc(C(=O)O)cc1-c1ccc(C(F)(F)F)cc1)c1ccc(C(F)(F)F)cc1
pEC50 [1]: 5.27

SMILES: O=C(O)C1(c2ccc(-c3ccc(Cl)c(Cl)c3)c(F)c2)CC1
pEC50 [17]: 4.40

SMILES: CC(C)CCC(c1ccc(CC(=O)O)cc1-c1ccc(C(F)(F)F)cc1)N1CCC(F)CC1 (configuration not stated)
pEC50 [1]: 5.48

SMILES: CC(C)CCN(Cc1ccc(CC(=O)O)cc1-c1ccc(F)cc1)[C@H]1CC[C@H](C(C)(C)C)CC1
pEC50 [1]: 5.25

SMILES: C[C@@H](C(=O)O)c1ccc(-c2ccccc2)c(F)c1 [TARENFLURBIL]
pEC50 [18]: 3.52

SMILES: CC(C)(C)CC(c1ccc(CC(=O)O)cc1-c1ccc(C(F)(F)F)cc1)N1CCC(C(F)(F)F)CC1 (single isomer, unassigned; enantiomer 1)
pIC50 [1]: 6.15 | inhibition (INH) (Mus musculus [16]): 25%

Further lines, with some results ahead:

QH (Homo sapiens): 39% | concentration at 4 h [3]: 32 µM | Cmax [4]: 1120 ng/mL | QH (Rattus norvegicus [5]): 31% | pIC50 (Cytochrome P450 1A2): < 5.00 | concentration at 4 h [7]: 9 µM | AUC/dose (Rattus norvegicus [8]): 5495 ng·kg·h/mL/mg | AUC/dose (Canis familiaris): 28712 ng·kg·h/mL/mg | half-life [9]: 10.1 h | clearance [10]: 0.6 mL/min/kg | Ratio (Caco-2): 1.9 | Kp at 4 h [11]: 1 | pEC50 [1]: 6.20 | pIC50 (Cytochrome P450 2C9): < 5.00 | pIC50 (Cytochrome P450 2D6): < 5.00 | concentration at 4 h [12]: 37 µM | pIC50 (Cytochrome P450 2C19): < 5.00 | half-life [13]: 9.6 h | Papp A→B [14]: 16 ×10⁻⁶ cm/s | clearance [15]: 2.5 mL/min/kg | pIC50 (Cytochrome P450 3A4): < 5.00
SMILES: CC(C)(C)CC(c1ccc(CC(=O)O)cc1-c1ccc(C(F)(F)F)cc1)N1CCC(C(F)(F)F)CC1 (racemic)
inhibition (INH) [2]: Not Active | inhibition in vivo at 12.5 mg/kg (Mus musculus [6]): 25% | inhibition (INH) (Mus musculus [16]): 50%

concentration at 4 h [3]: 10 µM | pEC50 [1]: 6.38 | concentration at 4 h [12]: 23 µM
SMILES: O=C(O)Cc1ccc(C(C2CCCCC2)N2CCC(C(F)(F)F)CC2)c(-c2ccc(C(F)(F)F)cc2)c1 (configuration not stated)
inhibition in vivo at 30 mg/kg (Mus musculus [16]): 15%

concentration at 4 h [3]: 13 µM | pEC50 [1]: 6.47 | concentration at 4 h [12]: 22 µM
SMILES: CC(C)CCC(c1ccc(C(C)C(=O)O)cc1-c1ccc(C(F)(F)F)cc1)N1CCC(C(F)(F)F)CC1 (configuration not stated)
inhibition in vivo at 30 mg/kg (Mus musculus [16]): 35%

pEC50 [1]: 6.28
SMILES: CC(C)CCC(c1ccc(CC(=O)O)cc1-c1ccc(C(F)(F)F)cc1)N1CCCC(C(F)(F)F)C1 (mixture of isomers)

concentration at 4 h [3]: 13 µM | pEC50 [1]: 6.34 | concentration at 4 h [12]: 21 µM
SMILES: CC(C)CCC(c1ccc(C(C)(C)C(=O)O)cc1-c1ccc(C(F)(F)F)cc1)N1CCC(C(F)(F)F)CC1 (configuration not stated)
inhibition in vivo at 30 mg/kg (Mus musculus [16]): 20%

pEC50 [1]: 5.85
SMILES: O=C(O)Cc1ccc(C(CCC(F)(F)F)N2CCC(C(F)(F)F)CC2)c(-c2ccc(C(F)(F)F)cc2)c1 (configuration not stated)

concentration at 4 h [3]: 18 µM | pEC50 [1]: 6.27 | concentration at 4 h [12]: 25 µM
SMILES: O=C(O)Cc1ccc(C(CC2CCCCC2)N2CCC(C(F)(F)F)CC2)c(-c2ccc(C(F)(F)F)cc2)c1 (configuration not stated)
inhibition in vivo at 30 mg/kg (Mus musculus [16]): 30%

pEC50 [1]: 6.92 | concentration at 4 h [19]: 0.7 µM
SMILES: CC(C)CCN(Cc1ccc(C(CC(C)C)C(=O)O)cc1-c1ccc(C(F)(F)F)cc1)[C@H]1CC[C@H](C(C)(C)C)CC1 (mixture of isomers)
inhibition (Mus musculus [20]): inactive
